The values below come from patent publication US12643886B2 (Ontario Institute for Cancer Research (OICR), priority 2021, dated 2026).

As usually defined, the IC50 is the point on the concentration scale where inhibition reaches its midpoint.

Some results are limits rather than exact numbers.

Assay type in all cases: biochemical
The target of test [1] is T1, NUAK2 (h) (Homo sapiens, UniProt Q9H093).
T1 construct: This assay was done radiometrically using full-length, recombinant enzyme; purchased Eurofins
T1 sequence (Q9H093 1-628): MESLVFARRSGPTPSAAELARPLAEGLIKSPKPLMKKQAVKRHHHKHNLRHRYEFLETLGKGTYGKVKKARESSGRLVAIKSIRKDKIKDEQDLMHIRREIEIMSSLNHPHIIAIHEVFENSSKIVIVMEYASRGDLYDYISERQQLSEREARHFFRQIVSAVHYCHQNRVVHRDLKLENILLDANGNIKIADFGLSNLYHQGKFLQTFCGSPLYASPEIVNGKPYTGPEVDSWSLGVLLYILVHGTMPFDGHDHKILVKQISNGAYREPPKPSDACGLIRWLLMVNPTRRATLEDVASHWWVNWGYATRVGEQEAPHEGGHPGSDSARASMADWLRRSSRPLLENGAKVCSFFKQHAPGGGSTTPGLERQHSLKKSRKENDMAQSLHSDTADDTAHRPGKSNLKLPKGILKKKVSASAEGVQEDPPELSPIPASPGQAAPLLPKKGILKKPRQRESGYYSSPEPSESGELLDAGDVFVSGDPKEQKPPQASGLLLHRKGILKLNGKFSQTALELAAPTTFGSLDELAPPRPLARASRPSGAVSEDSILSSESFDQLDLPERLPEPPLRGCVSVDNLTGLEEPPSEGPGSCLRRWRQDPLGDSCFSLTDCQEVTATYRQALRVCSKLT
In words: NUAK2 enzymatic assay (radiometric, Eurofins). Conditions: full-length recombinant enzyme. The method, then:
(§1) To identify small molecule NUAK inhibitors, a biochemical NUAK2 enzymatic assay were outsourced to Eurofins. This assay was done radiometrically using full-length, recombinant enzyme. NUAK2 (h) was incubated with 8 mM MOPS pH 7.0, 0.2 mM EDTA, 300 μM […], 10 mM magnesium acetate and […] (specific activity and concentration as required). The reaction was initiated by the addition of the Mg/ATP mix. After incubation for 40 minutes at room temperature, the reaction was stopped by the addition of phosphoric acid to a concentration of 0.5%. 10 μL of the reaction was then spotted onto a P30 filtermat and washed four times for 4 minutes in 0.425% phosphoric acid and once in methanol prior to drying and scintillation counting. Compounds were routinely counter-screened against Aurora A and NUAK1. The results are shown in Table 1 where IC50's are reported in the following ranges: A: 0.1-10 nM; B: 11-100 nM; C: 101-1000 nM; D: >1000 nM for the compounds of Formula (I)

In test [2] the target is T2, Aurora A (Homo sapiens, UniProt O14965).
T2 sequence (O14965 1-403): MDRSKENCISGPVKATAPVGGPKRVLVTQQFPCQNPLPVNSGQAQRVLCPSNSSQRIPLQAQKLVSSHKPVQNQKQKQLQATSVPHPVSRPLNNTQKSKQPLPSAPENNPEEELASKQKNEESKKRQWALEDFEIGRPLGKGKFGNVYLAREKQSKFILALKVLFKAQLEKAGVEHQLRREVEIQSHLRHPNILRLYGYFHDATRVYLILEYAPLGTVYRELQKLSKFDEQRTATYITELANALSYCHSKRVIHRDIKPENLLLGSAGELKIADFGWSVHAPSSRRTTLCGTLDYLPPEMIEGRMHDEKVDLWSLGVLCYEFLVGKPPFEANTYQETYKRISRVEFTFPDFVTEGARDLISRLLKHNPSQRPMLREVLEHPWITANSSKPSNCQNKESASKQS
In words: Counter-screen against Aurora A. Conditions: read-out: AUR-A (IC50). How it is done:
as §1
Background: A counterscreen serves to expose hits that act by an unwanted route or on another target.

The target of test [3] is T3, NUAK1 (Homo sapiens, UniProt O60285).
T3 sequence (O60285 1-661): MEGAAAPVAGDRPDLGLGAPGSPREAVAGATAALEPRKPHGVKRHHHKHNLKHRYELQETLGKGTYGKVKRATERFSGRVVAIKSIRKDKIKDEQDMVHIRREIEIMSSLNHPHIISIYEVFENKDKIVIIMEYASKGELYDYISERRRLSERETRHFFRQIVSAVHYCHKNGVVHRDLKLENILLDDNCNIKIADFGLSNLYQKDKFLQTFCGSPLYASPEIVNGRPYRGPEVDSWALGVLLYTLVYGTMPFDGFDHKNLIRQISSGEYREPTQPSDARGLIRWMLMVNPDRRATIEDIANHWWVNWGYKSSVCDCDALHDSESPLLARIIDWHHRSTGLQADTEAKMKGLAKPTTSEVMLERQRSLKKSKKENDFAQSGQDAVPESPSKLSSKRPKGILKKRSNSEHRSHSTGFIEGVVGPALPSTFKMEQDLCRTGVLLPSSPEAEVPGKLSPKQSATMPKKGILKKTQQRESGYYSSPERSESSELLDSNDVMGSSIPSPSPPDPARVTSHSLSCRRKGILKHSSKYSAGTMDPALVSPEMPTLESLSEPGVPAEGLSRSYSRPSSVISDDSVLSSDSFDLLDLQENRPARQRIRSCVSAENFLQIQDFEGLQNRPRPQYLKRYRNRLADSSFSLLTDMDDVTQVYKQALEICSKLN
In words: Counter-screen against NUAK1. The method, then:
as §1

Take `CN1CCN(c2ccc(Nc3ncc(Cl)c(Nc4cccc5c4C(=O)NC5)n3)c(OC(F)F)c2)CC1` [Compound I-1, 7-((5-chloro-2-((2-(difluoromethoxy)-4-(4-methylpiperazin-1-yl)phenyl)amino)pyrimidin-4-yl)amino)isoindolin-1-one]: the IC50 in test [1] lay in the range of 0.1 to 10 nM; in test [2], 101 to 1000 nM; in test [3], 11 to 100 nM.

Turning to `CCN1CCN(c2ccc(Nc3nccc(Nc4cccc5c4C(=O)NC5)n3)cc2F)CC1` [Compound I-2, 7-((2-((4-(4-ethylpiperazin-1-yl)-3-fluorophenyl)amino)pyrimidin-4-yl)amino)isoindolin-1-one], the IC50 in test [1] is 11 to 100 nM; in test [2], 0.1 to 10 nM; in test [3], 0.1 to 10 nM.

Take `COc1cc2c(cc1Nc1ncc(Cl)c(Nc3cccc4c3C(=O)NC4)n1)CN(C)CC2` [Compound I-3, 7-((5-chloro-2-((6-methoxy-2-methyl-1,2,3,4-tetrahydroisoquinolin-7-yl)amino)pyrimidin-4-yl)amino)isoindolin-1-one]: the 50% inhibitory concentration (IC50) in test [1] fell in the range of 11 to 100 nM; in test [2], 101 to 1000 nM; in test [3], 101 to 1000 nM.

For `CCN1CCN(c2ccc(Nc3ncc(Cl)c(Nc4cccc5c4C(=O)NC5)n3)cc2F)CC1` [Compound I-4, 7-((5-chloro-2-((4-(4-ethylpiperazin-1-yl)-3-fluorophenyl)amino)pyrimidin-4-yl)amino)isoindolin-1-one], the IC50 lay within 0.1 to 10 nM in test [1], 0.1 to 10 nM in test [2] and 11 to 100 nM in test [3].

As for `COc1cc(N2CCN(C)CC2)ccc1Nc1ncc(Cl)c(Nc2cccc3c2C(=O)NC3)n1` [Compound I-5, 7-((5-chloro-2-((2-methoxy-4-(4-methylpiperazin-1-yl)phenyl)amino)pyrimidin-4-yl)amino)isoindolin-1-one], the IC50 in test [1] was 0.1 to 10 nM; in test [2], 11 to 100 nM; in test [3] it was 11 to 100 nM.

With `COc1c(Nc2ncc(Cl)c(Nc3cccc4c3C(=O)NC4)n2)ccc(N2CCN3CCCC3C2)c1F` (stereo not shown) [Compound I-6, 7-((5-chloro-2-((3-fluoro-4-(hexahydropyrrolo[1,2-a]pyrazin-2(1H)-yl)-2-methoxyphenyl)amino)pyrimidin-4-yl)amino)isoindolin-1-one], the IC50 in test [1] lay in the range of 11 to 100 nM; in test [2], 101 to 1000 nM; in test [3], 11 to 100 nM.

In the case of `COc1c(Nc2ncc(Cl)c(Nc3cccc4c3C(=O)NC4)n2)ccc(N2CCC(N3CCN(C)CC3)CC2)c1F` [Compound I-7, 7-((5-chloro-2-((3-fluoro-2-methoxy-4-(4-(4-methylpiperazin-1-yl)piperidin-1-yl)phenyl)amino)pyrimidin-4-yl)amino)isoindolin-1-one], the 50% inhibitory concentration (IC50) lay within 11 to 100 nM in test [1], 101 to 1000 nM in test [2] and 11 to 100 nM in test [3].

Consider `CN1CCN(c2ccc(Nc3ncc(Cl)c(Nc4cccc5c4C(=O)NC5)n3)c(C(F)(F)F)c2)CC1` [Compound I-8, 7-((5-chloro-2-((4-(4-methylpiperazin-1-yl)-2-(trifluoromethyl)phenyl)amino)pyrimidin-4-yl)amino)isoindolin-1-one], for which the figures for the half-maximal inhibitory concentration (IC50) in test [1], in test [2] and in test [3] were 11 to 100 nM, 101 to 1000 nM and 101 to 1000 nM, respectively.

For the compound `CN1CCN(C2CCN(c3ccc(Nc4ncc(Cl)c(Nc5cccc6c5C(=O)NC6)n4)c(OC(F)F)c3)CC2)CC1` [Compound I-9, 7-((5-chloro-2-((2-(difluoromethoxy)-4-(4-(4-methylpiperazin-1-yl)piperidin-1-yl)phenyl)amino)pyrimidin-4-yl)amino)isoindolin-1-one], the half-inhibitory concentration (IC50) in test [1] is 0.1 to 10 nM; in test [2], 101 to 1000 nM; in test [3] it was 11 to 100 nM.

For the compound `CN1CCc2ccc(Nc3ncc(Cl)c(Nc4cccc5c4C(=O)NC5)n3)cc2C1` [Compound I-10, 7-((5-chloro-2-((2-methyl-1,2,3,4-tetrahydroisoquinolin-7-yl)amino)pyrimidin-4-yl)amino)isoindolin-1-one], the half-inhibitory concentration (IC50) in test [1], in test [2] and in test [3] was 0.1 to 10 nM throughout.

As for `CC(C)Oc1cc(N2CCN(C)CC2)ccc1Nc1ncc(Cl)c(Nc2cccc3c2C(=O)NC3)n1` [Compound I-11, 7-((5-chloro-2-((2-isopropoxy-4-(4-methylpiperazin-1-yl)phenyl)amino)pyrimidin-4-yl)amino)isoindolin-1-one], the 50% inhibitory concentration (IC50) in test [1] is 101 to 1000 nM; in test [2] it was > 1000 nM; in test [3], > 1000 nM.

Turning to `COc1cc2c(cc1Nc1ncc(Cl)c(Nc3cccc4c3C(=O)NC4)n1)CCN(C)C2` [Compound I-12, 7-((5-chloro-2-((7-methoxy-2-methyl-1,2,3,4-tetrahydroisoquinolin-6-yl)amino)pyrimidin-4-yl)amino)isoindolin-1-one], the IC50 was 0.1 to 10 nM in test [1], > 1000 nM in test [2] and 11 to 100 nM in test [3].

As for `COc1nc(N2CCC(N3CCN(C)CC3)CC2)ccc1Nc1ncc(Cl)c(Nc2cccc3c2C(=O)NC3)n1` [Compound I-13, 7-((5-chloro-2-((2-methoxy-6-(4-(4-methylpiperazin-1-yl)piperidin-1-yl)pyridin-3-yl)amino)pyrimidin-4-yl)amino)isoindolin-1-one], the IC50 lay within 0.1 to 10 nM in test [1], 11 to 100 nM in test [2] and 11 to 100 nM in test [3].

Turning to `COc1nc(N2CCN(C)CC2)ccc1Nc1ncc(Cl)c(Nc2cccc3c2C(=O)NC3)n1` [Compound I-14, 7-((5-chloro-2-((2-methoxy-6-(4-methylpiperazin-1-yl)pyridin-3-yl)amino)pyrimidin-4-yl)amino)isoindolin-1-one], the IC50 in test [1] was in the range of 11 to 100 nM; in test [2], 11 to 100 nM; in test [3], 0.1 to 10 nM.

On to `Cc1c(N2CCN(C)CC2)ccc(Nc2ncc(Cl)c(Nc3cccc4c3C(=O)NC4)n2)c1Cl` [Compound I-15, 7-((5-chloro-2-((2-chloro-3-methyl-4-(4-methylpiperazin-1-yl)phenyl)amino)pyrimidin-4-yl)amino)isoindolin-1-one], for which the 50% inhibitory concentration (IC50) in test [1] lay within 11 to 100 nM; in test [2] it was 101 to 1000 nM; in test [3], 11 to 100 nM.

For the compound `CN1CCN(c2ccc(Nc3ncc(Cl)c(Nc4ccc(F)c5c4C(=O)NC5)n3)c(OC(F)F)c2)CC1` [Compound I-84, 7-((5-chloro-2-((2-(difluoromethoxy)-4-(4-methylpiperazin-1-yl)phenyl)amino)pyrimidin-4-yl)amino)-4-fluoroisoindolin-1-one], the values for the 50% inhibitory concentration (IC50) in test [1] and in test [2] were 0.1 to 10 nM and > 1000 nM, respectively.

Consider `COc1cc(CN(C)C)ccc1Nc1ncc(Cl)c(Nc2ccc(F)c3c2C(=O)NC3)n1` [Compound I-85, 7-((5-chloro-2-((4-((dimethylamino)methyl)-2-methoxyphenyl)amino)pyrimidin-4-yl)amino)-4-fluoroisoindolin-1-one], for which the IC50 in test [1] was 11 to 100 nM; in test [2] it was > 1000 nM.
